# Data reported in patent US20090247520A1, “INHIBITORS OF ANTIGEN RECEPTOR-INDUCED NF-kappa B ACTIVATION” (The Burnham Institute for Medical Research, priority 2008, published 2009).
# Read-outs that look alike come from different tables or passages of the source.
# What was measured:
# [1] = test system: PMA/Ionomycin-induced IL-2 production; assay: IL-2 production by PMA/Ionomycin-stimulated Jurkat T cells (ELISA); assay type: cell-based, human
# Method: (§1) FIG. 4A: Jurkat T cells were treated by anti-cd3/anti-cd28/anti-mouse IgG (6 μg/mL) or PMA/Ion (10 ng/mL) for 24 h, IL-2 production in medium was measured by ELISA kit. FIG. 4B-E: Jurkat T cells were pretreated by IKK inhibitor (B), PKC inhibitor (C), CID-2858522 (D) for 2 h and then treated by anti-cd3/anti-cd28/anti-mouse IgG (6 μg/mL) or PMA/Ion (10 ng/mL) for 24 h, IL-2 production in medium was measured by ELISA kit; E, Jurkat cells were treated by CID-2858522, PKC inhibitor and IKK inhibitor for 24 h, cell viability was measured by ATPlite kit.
# (§2) In T cells, the antigen receptor stimulates several signal transduction pathways that converge on the IL-2 gene promoter, including NF-κB, NF-AT, and AP-1. For evaluating the effects of CID-2858522 on TCR-initiated, NF-κB-driven events in lymphocytes, we employed Jurkat T-leukemia cells, which have been utilized extensively as model for studying TCR-signaling leading to IL-2 gene expression. For these experiments, Jurkat cells were stimulated with either anti-CD3 (to activate the TCR complex) and anti-CD28 (co-stimulator) or with PMA/Ionomycin, in the presence or absence of CID-2858522, IKK inhibitor, or PKC inhibitor, then IL-2 production was measured 24 hrs later in culture supernatants. […] In contrast, CID-2858522 suppressed IL-2 production by CD3/CD28- and PMA/Ionomycin-stimulated Jurkat cells by approximately half (IC50) at concentrations <10 μM (FIG. 4D).
# (§3) Lymphokine measurements. Human IL-2 or IL-8 levels in culture medium were measured by Enzyme-Linked Immunosorbent Assays (ELISAs), using BD OptEIA ELISAs (BD Biosciences, San Diego, Calif.), according to the manufacturer's protocol, using 96-well ELISA plates (BD Biosciences) and measuring absorbance within 30 minutes of initiating reactions using a SpectraMax 190 spectrophotometer (Molecular Devices).
# [2] = test system: anti-CD3/CD28-induced IL-2 production; assay: IL-2 production by anti-CD3/CD28-stimulated Jurkat T cells (ELISA); assay type: cell-based, human; settings: for suppression of IL-2 production: anti-CD3/CD28 Jurkat, IKK inhibitor ≦10 μM, PKC inhibitor <0.5 μM
# Method: as §1, §2, §3
# [3] = test system: anti-IgM-induced lymphocyte proliferation; assay: Lymphocyte proliferation assay (3H-Thymidine), anti-IgM-stimulated splenocytes; assay type: cell-based, mouse; settings: for IC50: mouse splenocytes, 3H-Thymidine incorporation, read-out: IC50, lymphocyte proliferation, B-cells (anti-IgM)
# Method: (A) Isolated mouse primary splenocytes were cultured with anti-CD3/anti-CD28 (0.3 μg/mL each) or anti-IgM (3 μg/mL) for 48 h, then 1 μCi 3H-Thymidine was added for 12 h and incorporation into DNA was measured, expressing data as fold increase above unstimulated cells (mean±SD; n=3). (B-D) Primary splenocytes were pretreated for 2 h with IKK inhibitor, BMS-335541 (B), PKC inhibitor, Bisindolylmaleimide I (C) or CID-2858522 (D), then stimulated with anti-CD3/anti-CD28 (0.3 μg/mL) or anti-IgM (3 μg/mL) for 48 h. 1 μCi 3H-Thymidine was added for 12 h and incorporation into DNA was measured, expressing data as percent inhibition relative to control cells treated with DMSO (mean±SD; n=3). […] Levels of TRAF1 and β-actin were assessed by immunoblotting, quantified by densitometry and TRAF1 results reported relative to control cells, after normalization for β-actin (mean±SD). […] Then nuclear extracts were prepared and p65-DNA-binding activity was measured (mean±SD; n=3).
# Lymphocyte proliferation assay. Splenocytes were isolated from normal Balb/c mice and red blood cells were removed using a mouse erythrocyte lysis kit (R&D Systems, Minneapolis, Minn.). Splenocytes were suspended in RMPI-1640 medium supplemented with 10% FBS, 1% penicillin-streptomycin, and 1 mM L-glutamine. Cells were diluted into 2×10^6 cells/mL and 200 μL were seeded in round bottom 96-well plates and incubated at 37° C. in 5% CO2 and 95% relative humidity. Cells were pretreated with compounds or DMSO diluted in medium for 2 h, then treated with anti-CD3/anti-CD28 or anti-IgM antibodies for 48 h, prior to adding 1 μCi [^3H]-Thymidine for (MP Biomedical, Solon, Ohio) 12 h. Cells were transferred to fiberglass filters (Wallac, Turku, Finland) using a FilterMate Harvester (Perkin Elmer), dried, and [^3H]-incorporation into DNA was quantified by scintillation counting Betaplate Scint (Perkin Elmer) and a MicroBetaTrilux LCS and luminescence counter (Perkin Elmer).
Compound,suppression of PMA/Ionomycin-induced IL-2 production ([1]; Jurkat),suppression of IL-2 production [2],IC50 ([3]; Lymphocyte) [nM],"suppression of lymphocyte proliferation ([3]; concentrations of 5 μM, stimulus not specified)","suppression of IL-2 production ([1]; PMA/Ionomycin Jurkat, PKC inhibitor <0.5 μM)",IC50 [3] [nM],"IC50 ([1]; Homo sapiens, PMA/Ionomycin-stimulated Jurkat cells, 24 h, read-out: IC50, suppression of IL-2 production (by approximately half)) [nM]","IC50 ([2]; Homo sapiens, CD3/CD28-stimulated Jurkat cells, 24 h, read-out: IC50, suppression of IL-2 production (by approximately half)) [nM]"
"Cc1ccc2nc(NCCN)c3ncc(C)n3c2c1 [BMS-345541, reference compound]",partially suppressed,90%,~2000,essentially completely suppressed,,,,
"CN(C)CCCn1cc(C2=C(c3c[nH]c4ccccc34)C(=O)NC2=O)c2ccccc21 [Bisindolylmaleimide I, reference compound]",,80-90%,,,80-90%,200,,
"Cc1cc2nc(NCCCO)n(CC(=O)c3cc(C(C)(C)C)c(O)c(C(C)(C)C)c3)c2cc1C [Compound 1, 2-(2-(3-Hydroxypropylamino)-5,6-dimethyl-1H-benzo[d]imidazol-1-yl)-1-(3,5-di-tert-butyl-4-hydroxyphenyl)ethanone]",,,2000,,,,< 10000,< 10000
